This is an account of results in ChEMBL document CHEMBL2074246, “Distinct groups of multidrug resistance modulating agents are distinguished by competition of P-glycoprotein-specific antibodies” (Biochem Biophys Res Commun, 2004).

Holding throughout (format): functional, cell-based
Data set [1] concerns the target T1, ATP-dependent translocase ABCB1 (Homo sapiens, UniProt P08183). Nature of the data set: TP_TRANSPORTER: increase in Calcein-AM intracellular accumulation (Calcein-AM: 0.5uM, Nifedipine:125uM) in MDR1-expressing NIH-3T3 cells. The following applies: mouse, nih3t3, 125 µM.
The target of data set [2] is T1, ATP-dependent translocase ABCB1. The data set is described as follows: TP_TRANSPORTER: increase in Calcein-AM intracellular accumulation (Calcein-AM: 0.5 uM, Prednisone: 200 uM) in MDR1-expressing NIH-3T3 cells. The following applies: mouse, nih3t3, 200 µM.
For data set [3] the target is unchanged. Nature of the data set: TP_TRANSPORTER: increase in Calcein-AM intracellular accumulation (Calcein-AM: 0.5 uM, Progesterone: 10 uM) in MDR1-expressing NIH-3T3 cells. The following applies: mouse, nih3t3, 10 µM.
For data set [4] the target is unchanged. Nature of the data set: TP_TRANSPORTER: increase in Calcein-AM intracellular accumulation (Calcein-AM: 0.5 uM, Propranolol: 500 uM) in MDR1-expressing NIH-3T3 cells. The following applies: mouse, nih3t3, 500 µM.
For data set [5] the target is unchanged. Nature of the data set: TP_TRANSPORTER: increase in Calcein-AM intracellular accumulation (Calcein-AM: 0.5 uM, Quinine: 20 uM) in MDR1-expressing NIH-3T3 cells. The following applies: mouse, nih3t3, 20 µM.
The target is the same in data set [6]. Nature of the data set: TP_TRANSPORTER: increase in Calcein-AM intracellular accumulation (Calcein-AM: 0.5 uM, Reserpine: 40 uM) in MDR1-expressing NIH-3T3 cells. Conditions: mouse, nih3t3, 40 µM.
The target is the same in data set [7]. The data set is described as follows: TP_TRANSPORTER: increase in Calcein-AM intracellular accumulation (Calcein-AM: 0.5 uM, Rapamycin: 20 uM) in MDR1-expressing NIH-3T3 cells. Conditions: mouse, nih3t3, 20 µM.
Data set [8] has the same target. Nature of the data set: TP_TRANSPORTER: increase in Calcein-AM intracellular accumulation (Calcein-AM: 0.5 uM, Tetracaine: 320 uM) in MDR1-expressing NIH-3T3 cells. The following applies: mouse, nih3t3, 320 µM.
The target is the same in data set [9]. Nature of the data set: TP_TRANSPORTER: increase in Calcein-AM intracellular accumulation (Calcein-AM: 0.5 uM, Trimipramine: 20 uM) in MDR1-expressing NIH-3T3 cells. Conditions: mouse, nih3t3, 20 µM.
The target is the same in data set [10]. The data set is described as follows: TP_TRANSPORTER: increase in Calcein-AM intracellular accumulation (Calcein-AM: 0.5 uM, Tween 20: 1.4x10-3a%) in MDR1-expressing NIH-3T3 cells. Conditions: mouse, nih3t3.
For data set [11] the target is unchanged. Nature of the data set: TP_TRANSPORTER: increase in Calcein-AM intracellular accumulation (Calcein-AM: 0.5 uM, Valinomycin: 10 uM) in MDR1-expressing NIH-3T3 cells. The following applies: mouse, nih3t3, 10 µM.
Data set [12] has the same target. The data set is described as follows: TP_TRANSPORTER: increase in Calcein-AM intracellular accumulation (Calcein-AM: 0.5 uM, PSC-833: 8 uM) in MDR1-expressing NIH-3T3 cells. Conditions: mouse, nih3t3, 8 µM.
Data set [13] has the same target. Nature of the data set: TP_TRANSPORTER: increase in Calcein-AM intracellular accumulation (Calcein-AM: 0.5 uM, Vinblastine: 70 uM) in MDR1-expressing NIH-3T3 cells. The following applies: mouse, nih3t3, 70 µM.
Data set [14] has the same target. The data set is described as follows: TP_TRANSPORTER: increase in Calcein-AM intracellular accumulation (Calcein-AM: 0.5 uM, o-Amsacrine: 5 uM) in MDR1-expressing NIH-3T3 cells. The following applies: mouse, nih3t3, 5 µM.
Data set [15] has the same target. Nature of the data set: TP_TRANSPORTER: increase in Calcein-AM intracellular accumulation (Calcein-AM: 0.5 uM, Ivermectin: 20 uM) in MDR1-expressing NIH-3T3 cells. The following applies: mouse, nih3t3, 20 µM.

T1 sequence (P08183 whole entry): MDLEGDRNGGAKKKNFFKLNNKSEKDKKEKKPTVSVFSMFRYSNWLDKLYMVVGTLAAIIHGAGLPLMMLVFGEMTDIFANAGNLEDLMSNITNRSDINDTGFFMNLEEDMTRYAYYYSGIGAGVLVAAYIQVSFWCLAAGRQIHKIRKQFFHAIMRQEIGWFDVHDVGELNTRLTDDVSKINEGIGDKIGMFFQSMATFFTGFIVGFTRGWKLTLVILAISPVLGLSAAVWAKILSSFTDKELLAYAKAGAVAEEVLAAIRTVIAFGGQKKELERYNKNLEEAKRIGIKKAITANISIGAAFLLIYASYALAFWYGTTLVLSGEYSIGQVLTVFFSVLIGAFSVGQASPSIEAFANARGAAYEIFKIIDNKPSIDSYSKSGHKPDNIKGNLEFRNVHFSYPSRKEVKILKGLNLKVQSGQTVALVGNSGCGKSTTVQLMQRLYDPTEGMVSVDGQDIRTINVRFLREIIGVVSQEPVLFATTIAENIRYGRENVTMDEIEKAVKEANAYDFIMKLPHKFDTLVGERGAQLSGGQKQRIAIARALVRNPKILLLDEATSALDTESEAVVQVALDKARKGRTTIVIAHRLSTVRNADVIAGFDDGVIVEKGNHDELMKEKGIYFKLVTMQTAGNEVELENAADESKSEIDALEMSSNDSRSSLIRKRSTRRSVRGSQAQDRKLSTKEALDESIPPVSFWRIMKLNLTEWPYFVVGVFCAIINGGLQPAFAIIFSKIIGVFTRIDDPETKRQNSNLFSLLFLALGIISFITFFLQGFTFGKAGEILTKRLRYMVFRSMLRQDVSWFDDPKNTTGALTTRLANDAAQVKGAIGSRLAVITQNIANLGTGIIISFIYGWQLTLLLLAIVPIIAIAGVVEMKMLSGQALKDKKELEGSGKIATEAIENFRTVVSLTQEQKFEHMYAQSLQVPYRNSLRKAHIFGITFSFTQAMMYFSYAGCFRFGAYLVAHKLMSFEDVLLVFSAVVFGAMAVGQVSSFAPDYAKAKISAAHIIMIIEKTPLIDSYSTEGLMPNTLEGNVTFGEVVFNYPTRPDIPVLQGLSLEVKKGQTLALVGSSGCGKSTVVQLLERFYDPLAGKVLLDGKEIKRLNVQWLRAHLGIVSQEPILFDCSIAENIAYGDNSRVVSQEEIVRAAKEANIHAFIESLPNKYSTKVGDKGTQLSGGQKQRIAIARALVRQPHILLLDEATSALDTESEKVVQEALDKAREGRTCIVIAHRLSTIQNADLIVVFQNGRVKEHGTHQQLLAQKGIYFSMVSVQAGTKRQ

Take `COC(=O)C1=C(C)NC(C)=C(C(=O)OC)C1c1ccccc1[N+](=O)[O-]` [NIFEDIPINE]: the Activity entry in data set [1] was “inhibitor [+]”. `C[C@]12C=CC(=O)C=C1CC[C@@H]1[C@@H]2C(=O)C[C@@]2(C)[C@H]1CC[C@]2(O)C(=O)CO` [PREDNISONE]: the Activity result in data set [2] was “inhibitor [+]”. For the molecule `CC(=O)[C@H]1CC[C@H]2[C@@H]3CCC4=CC(=O)CC[C@]4(C)[C@H]3CC[C@]12C` [PROGESTERONE], the Activity result in data set [3] is “inhibitor [+]”.

With `CC(C)NCC(O)COc1cccc2ccccc12` (stereo not given) [PROPRANOLOL], in data set [4], the Activity result was “inhibitor [+]”. In the case of `C=C[C@H]1C[N@@]2CC[C@H]1C[C@H]2[C@H](O)c1ccnc2ccc(OC)cc12` [QUININE], the Activity result in data set [5] was “inhibitor [+]”.

For the molecule `COC(=O)[C@H]1[C@H]2C[C@@H]3c4[nH]c5cc(OC)ccc5c4CCN3C[C@H]2C[C@@H](OC(=O)c2cc(OC)c(OC)c(OC)c2)[C@@H]1OC` [RESERPINE], in data set [6], the Activity result is “inhibitor [+]”.

Turning to `CO[C@H]1C[C@@H]2CC[C@@H](C)[C@@](O)(O2)C(=O)C(=O)N2CCCC[C@H]2C(=O)O[C@H]([C@H](C)C[C@@H]2CC[C@@H](O)[C@H](OC)C2)CC(=O)[C@H](C)/C=C(\C)[C@@H](O)[C@@H](OC)C(=O)[C@H](C)C[C@H](C)/C=C/C=C/C=C/1C` [SIROLIMUS], the Activity entry in data set [7] was “inhibitor [+]”. For `CCCCNc1ccc(C(=O)OCCN(C)C)cc1` [TETRACAINE], the Activity result in data set [8] was “inhibitor [+]”.

Consider `CC(CN(C)C)CN1c2ccccc2CCc2ccccc21` (stereo not given) [TRIMIPRAMINE], for which, in [9], the Activity result is “inhibitor [+]”. With `CCCCCCCCCCCC(=O)OCCOCCOCCOCCOCCOCCOCCOCCOCCOCCOCCOCCOCCOCCOCCOCCOCCOCCOCCOCCOCC(OCCOCCOCCOCCOCCOCCOCCOCCOCCOCCOCCOCCOCCOCCOCCOCCOCCOCCOCCOCCO)C1OCC(OCCOCCOCCOCCOCCOCCOCCOCCOCCOCCOCCOCCOCCOCCOCCOCCOCCOCCOCCOCCO)C1OCCOCCOCCOCCOCCOCCOCCOCCOCCOCCOCCOCCOCCOCCOCCOCCOCCOCCOCCOCCO` (stereo not given) [TWEEN 20], in [10], the Activity result is “inhibitor [+]”. Take `CC(C)[C@@H]1NC(=O)[C@H](C)OC(=O)[C@@H](C(C)C)NC(=O)[C@@H](C(C)C)OC(=O)[C@H](C(C)C)NC(=O)[C@H](C)OC(=O)[C@@H](C(C)C)NC(=O)[C@@H](C(C)C)OC(=O)[C@H](C(C)C)NC(=O)[C@H](C)OC(=O)[C@@H](C(C)C)NC(=O)[C@@H](C(C)C)OC1=O` [VALINOMYCIN]: the Activity entry in data set [11] was “inhibitor [+]”.

Turning to `C/C=C/C[C@@H](C)C(=O)[C@H]1C(=O)N[C@@H](C(C)C)C(=O)N(C)CC(=O)N(C)[C@@H](CC(C)C)C(=O)N[C@@H](C(C)C)C(=O)N(C)[C@@H](CC(C)C)C(=O)N[C@@H](C)C(=O)N[C@H](C)C(=O)N(C)[C@@H](CC(C)C)C(=O)N(C)[C@@H](CC(C)C)C(=O)N(C)[C@@H](C(C)C)C(=O)N1C` [VALSPODAR], in [12], the Activity entry is “inhibitor [+]”. On to `CC[C@]1(O)C[C@@H]2CN(CCc3c([nH]c4ccccc34)[C@@](C(=O)OC)(c3cc4c(cc3OC)N(C)[C@H]3[C@@](O)(C(=O)OC)[C@H](OC(C)=O)[C@]5(CC)C=CCN6CC[C@]43[C@@H]65)C2)C1` [VINBLASTINE], for which, in data set [13], the Activity result was “inhibitor [+]”. Turning to `COc1cc(Nc2c3ccccc3nc3ccccc23)ccc1NS(C)(=O)=O` [o-Amsacrine], the Activity entry in data set [14] is “inhibitor [+]”. With IVERMECTIN, the Activity result in data set [15] was “inhibitor [+]”.
